# Laboratory results taken from patent US12257247B2 (Monte Rosa Therapeutics AG, priority 2023, dated 2025).
# Where two headings read alike, the source gives them in different places.
# Target: T1, VAV1 (Homo sapiens, UniProt P15498+Q96SW2)
# T1 construct: A heterozygous VAV1 C-terminal HiBiT knock-in pool was generated at Monte Rosa Therapeutics from a clonal Jurkat cell; endogenous in cells; host or cells: Jurkat clone stably expressing LgBiT, homozygous GSPT1-G575N; heterozygous VAV1-HiBiT knock-in pool
# Assay: VAV1 degradation activity, VAV1-HiBiT knock-in Jurkat luminescence assay (Example A, Table 1)
# Assay type: cell-based
# Conditions: VAV1-HiBiT knock-in Jurkat cells; for Dmax: Jurkat
# In short: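 Jurkat cells carrying VAV1-HiBiT knock-in, plated in RPMI/10% FBS with Endurazine live-cell substrate and pre-incubated ~16 h at 37° C. Compound dosed from 10 μM stock; luminescence read 6 and 24 h later. Response normalised to plate negative/positive controls, EC50 from 3-parameter logistic fit (hillslope 1).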
# [1] = luminescence read at 6 and 24 hours, read-out: VAV1 Dmax %
# [2] = luminescence read at 6 and 24 hours, read-out: VAV1 Dmax %, class
# [3] = luminescence read at 6 and 24 hours, read-out: VAV1 DC50
# [4] = luminescence read at 6 and 24 hours, read-out: VAV1 DC50 (nM), class
# [5] = luminescence read at 6 and 24 hours after compound addition, read-out: VAV1 Dmax %
# [6] = luminescence read at 6 and 24 hours after compound addition, read-out: VAV1 Dmax %, class
# [7] = luminescence read at 6 and 24 hours after compound addition, read-out: VAV1 DC50
# [8] = luminescence read at 6 and 24 hours after compound addition, read-out: VAV1 DC50 (nM), class
smiles,measurement,setting,value
"CC1(C)CCC(=O)N1c1ccc(-c2cccc(C3CCC(=O)NC3=O)c2Cl)cc1 (stereo not drawn) [Compound 413, 3-(2-chloro-4′-(2,2-dimethyl-5-oxopyrrolidin-1-yl)-[1,1′-biphenyl]-3-yl)piperidine-2,6-dione]",Dmax,[1],97.5%
same,Dmax,[2],> 90%
same,DC50,[3],4.87 nM
same,DC50,[4],≤ 100 nM
"O=C1CCC(c2cccc(-c3ccc(N4C(=O)CCCC4C(F)(F)F)cc3)c2Cl)C(=O)N1 (stereo not drawn) [Compound 244, 3-(2-chloro-4′-(2-oxo-6-(trifluoromethyl)piperidin-1-yl)-[1,1′-biphenyl]-3-yl)piperidine-2,6-dione]",Dmax,[1],96.5%
same,Dmax,[2],> 90%
same,DC50,[3],8.36 nM
same,DC50,[4],≤ 100 nM
"O=C1CC[C@@H](c2cccc(-c3ccc(-n4ccccc4=O)cc3)c2Cl)C(=O)N1 [Compound 211, (S)-3-(2-chloro-4′-(2-oxopyridin-1(2H)-yl)-[1,1′-biphenyl]-3-yl)piperidine-2,6-dione]",Dmax,[1],97.9%
same,Dmax,[2],> 90%
same,DC50,[3],3.07 nM
same,DC50,[4],≤ 100 nM
"O=C1CCC(c2cccc(-c3ccc(N4CCN(CC(F)F)CC4=O)cc3)c2Cl)C(=O)N1 (stereo not drawn) [Compound 446, 3-(2-chloro-4′-(4-(2,2-difluoroethyl)-2-oxopiperazin-1-yl)-[1,1′-biphenyl]-3-yl)piperidine-2,6-dione]",Dmax,[1],95.2%
same,Dmax,[2],> 90%
same,DC50,[3],9.83 nM
same,DC50,[4],≤ 100 nM
"O=C1CCC(c2cccc(-c3ccc(C(=O)n4cccc4)cc3)c2Cl)C(=O)N1 (stereo not drawn) [Compound 222, 3-(2-chloro-4′-(1H-pyrrole-1-carbonyl)-[1,1′-biphenyl]-3-yl)piperidine-2,6-dione]",Dmax,[1],91%
same,Dmax,[2],> 90%
same,DC50,[3],127 nM
same,DC50,[4],100 to 1000 nM
"O=C1CCC(c2cccc(-c3cnc4c(c3)OCCN4)c2Cl)C(=O)N1 (stereo not drawn) [Compound 494, 3-(2-chloro-3-(3,4-dihydro-2H-pyrido[3,2-b][1,4]oxazin-7-yl)phenyl)piperidine-2,6-dione]",Dmax,[5],61.2%
same,Dmax,[6],60 to 90%
same,DC50,[7],929 nM
same,DC50,[8],100 to 1000 nM
"CC1(C)COC(=O)N1c1ccc(-c2cccc(C3CCC(=O)NC3=O)c2Cl)cc1 (stereo not drawn) [Compound 415, 3-(2-chloro-4′-(4,4-dimethyl-2-oxooxazolidin-3-yl)-[1,1′-biphenyl]-3-yl)piperidine-2,6-dione]",Dmax,[1],97.2%
same,Dmax,[2],> 90%
same,DC50,[3],4.87 nM
same,DC50,[4],≤ 100 nM
"Cn1ccc(COc2ccc(-c3ccc(F)c(C4CCC(=O)NC4=O)c3Cl)cc2)n1 (stereo not drawn) [Compound 144, 3-(2-chloro-4-fluoro-4′-((1-methyl-1H-pyrazol-3-yl)methoxy)-[1,1′-biphenyl]-3-yl)piperidine-2,6-dione]",Dmax,[1],65.3%
same,Dmax,[2],60 to 90%
same,DC50,[3],248 nM
same,DC50,[4],100 to 1000 nM
"O=C1CCC(c2cccc(-c3ccc(N4CCN(CC(F)(F)F)CC4=O)cc3)c2Cl)C(=O)N1 (stereo not drawn) [Compound 445, 3-(2-chloro-4′-(2-oxo-4-(2,2,2-trifluoroethyl)piperazin-1-yl)-[1,1′-biphenyl]-3-yl)piperidine-2,6-dione]",Dmax,[1],96%
same,Dmax,[2],> 90%
same,DC50,[3],11.5 nM
same,DC50,[4],≤ 100 nM
"C[C@H]1COC(=O)N1c1ccc(-c2cccc(C3CCC(=O)NC3=O)c2Cl)cc1 (stereo partly drawn) [Compound 216, 3-(2-chloro-4′-((S)-4-methyl-2-oxooxazolidin-3-yl)-[1,1′-biphenyl]-3-yl)piperidine-2,6-dione]",Dmax,[1],86.6%
same,Dmax,[2],60 to 90%
same,DC50,[3],49 nM
same,DC50,[4],≤ 100 nM
O=C1CCC(c2cccc(-c3ccc(N4Cc5nccn5CC4=O)cc3)c2Cl)C(=O)N1 (stereo not drawn) [Compound 328],Dmax,[1],90.8%
same,Dmax,[2],> 90%
same,DC50,[3],15 nM
same,DC50,[4],≤ 100 nM
"Cn1ccc(CCc2ccc(-c3cccc(C4CCC(=O)NC4=O)c3Cl)cn2)n1 (stereo not drawn) [Compound 249, 3-(2-chloro-3-(6-(2-(1-methyl-1H-pyrazol-3-yl)ethyl)pyridin-3-yl)phenyl)piperidine-2,6-dione]",Dmax,[1],48.9%
same,Dmax,[2],< 60%
same,DC50,[3],7400 nM
same,DC50,[4],> 1000 nM
Cc1cc(-c2cccc(C3CCC(=O)NC3=O)c2Cl)ccc1N (stereo not drawn) [Compound 131],Dmax,[1],94.9%
same,Dmax,[2],> 90%
same,DC50,[3],7.27 nM
same,DC50,[4],≤ 100 nM
O=C1CCC(c2cccc(-c3ccc(N4CCC5(COC5)CC4=O)cc3)c2Cl)C(=O)N1 (stereo not drawn) [Compound 310],Dmax,[1],90.5%
same,Dmax,[2],> 90%
same,DC50,[3],23 nM
same,DC50,[4],≤ 100 nM
CCc1cc(-c2cccc(C3CCC(=O)NC3=O)c2Cl)ccc1N (stereo not drawn) [Compound 101],Dmax,[1],96%
same,Dmax,[2],> 90%
same,DC50,[3],12.3 nM
same,DC50,[4],≤ 100 nM
"O=C1CCC(c2cccc(-c3ccc(N4C(=O)OCC45CCC5)nc3)c2Cl)C(=O)N1 (stereo not drawn) [Compound 357, 3-(2-chloro-3-(6-(6-oxo-7-oxa-5-azaspiro[3.4]octan-5-yl)pyridin-3-yl)phenyl)piperidine-2,6-dione]",Dmax,[1],90.8%
same,Dmax,[2],> 90%
same,DC50,[3],35.8 nM
same,DC50,[4],≤ 100 nM
"O=C1CCC(c2cccc(-c3ccc4cc[nH]c4c3)c2Cl)C(=O)N1 (stereo not drawn) [Compound 483, 3-(2-chloro-3-(1H-indol-6-yl)phenyl)piperidine-2,6-dione]",Dmax,[5],88.1%
same,Dmax,[6],60 to 90%
same,DC50,[7],59.9 nM
same,DC50,[8],≤ 100 nM
O=C1CCC(c2cccc(-c3ccc(CN4CC5CCCC5C4=O)cc3)c2Cl)C(=O)N1 (stereo not drawn) [Compound 282],Dmax,[1],98%
same,Dmax,[2],> 90%
same,DC50,[3],3.88 nM
same,DC50,[4],≤ 100 nM
"Cn1ccc(Cn2c(=O)n(C)c3cc(-c4cccc(C5CCC(=O)NC5=O)c4Cl)ccc32)n1 (stereo not drawn) [Compound 363, 3-(2-chloro-3-(3-methyl-1-((1-methyl-1H-pyrazol-3-yl)methyl)-2-oxo-2,3-dihydro-1H-benzo[d]imidazol-5-yl)phenyl)piperidine-2,6-dione]",Dmax,[1],97.1%
same,Dmax,[2],> 90%
same,DC50,[3],4.86 nM
same,DC50,[4],≤ 100 nM
"CC(C)Nc1ccc(-c2cccc(C3CCC(=O)NC3=O)c2Cl)cc1 (stereo not drawn) [Compound 129, 3-(2-chloro-4′-(isopropylamino)-[1,1′-biphenyl]-3-yl)piperidine-2,6-dione]",Dmax,[1],68.2%
same,Dmax,[2],60 to 90%
same,DC50,[3],240 nM
same,DC50,[4],100 to 1000 nM
"O=C1CCC(c2cccc(-c3ccc(N4CCCOC4=O)c(F)c3)c2Cl)C(=O)N1 (stereo not drawn) [Compound 452, 3-(2-chloro-3′-fluoro-4′-(2-oxo-1,3-oxazinan-3-yl)-[1,1′-biphenyl]-3-yl)piperidine-2,6-dione]",Dmax,[1],94%
same,Dmax,[2],> 90%
same,DC50,[3],21.5 nM
same,DC50,[4],≤ 100 nM
"O=C1CCC(c2cccc(-c3ccc4c(c3)CC(=O)N4Cc3cccnn3)c2Cl)C(=O)N1 (stereo not drawn) [Compound 395, 3-(2-chloro-3-(2-oxo-1-(pyridazin-3-ylmethyl)indolin-5-yl)phenyl)piperidine-2,6-dione]",Dmax,[1],83.9%
same,Dmax,[2],60 to 90%
same,DC50,[3],55.7 nM
same,DC50,[4],≤ 100 nM
N#Cc1cc(-c2cccc(C3CCC(=O)NC3=O)c2Cl)ccc1O (stereo not drawn) [Compound 112],Dmax,[1],78.2%
same,Dmax,[2],60 to 90%
same,DC50,[3],119 nM
same,DC50,[4],100 to 1000 nM
O=C1CCC(c2cccc(-c3ccc(OCC4CCCO4)cc3)c2Cl)C(=O)N1 (stereo not drawn) [Compound 119],Dmax,[1],87.1%
same,Dmax,[2],60 to 90%
same,DC50,[3],69.3 nM
same,DC50,[4],≤ 100 nM
"CN1CCCN(Cc2ccc(-c3cccc(C4CCC(=O)NC4=O)c3Cl)cc2)C1=O (stereo not drawn) [Compound 424, 3-(2-chloro-4′-((3-methyl-2-oxotetrahydropyrimidin-1(2H)-yl)methyl)-[1,1′-biphenyl]-3-yl)piperidine-2,6-dione]",Dmax,[1],95.3%
same,Dmax,[2],> 90%
same,DC50,[3],9.94 nM
same,DC50,[4],≤ 100 nM
O=C1CCC(c2cccc(-c3ccc(CCN4CCOCC4)cc3)c2Cl)C(=O)N1 (stereo not drawn) [Compound 122],Dmax,[1],81.3%
same,Dmax,[2],60 to 90%
same,DC50,[3],48.8 nM
same,DC50,[4],≤ 100 nM
"CC(C)(c1ccc(-c2cccc(C3CCC(=O)NC3=O)c2Cl)cc1)N1CCCCC1=O (stereo not drawn) [Compound 197, 3-(2-chloro-4′-(2-(2-oxopiperidin-1-yl)propan-2-yl)-[1,1′-biphenyl]-3-yl)piperidine-2,6-dione]",Dmax,[1],88.8%
same,Dmax,[2],60 to 90%
same,DC50,[3],33 nM
same,DC50,[4],≤ 100 nM
"O=C1CCC(c2cccc(-c3ccc(CCn4ccccc4=O)cc3)c2Cl)C(=O)N1 (stereo not drawn) [Compound 182, 3-(2-chloro-4′-(2-(2-oxopyridin-1(2H)-yl)ethyl)-[1,1′-biphenyl]-3-yl)piperidine-2,6-dione]",Dmax,[1],89.3%
same,Dmax,[2],60 to 90%
same,DC50,[3],11.7 nM
same,DC50,[4],≤ 100 nM
"O=C1CCC(c2cccc(-c3ccc(OCc4cc[nH]n4)cc3)c2Cl)C(=O)N1 (stereo not drawn) [Compound 203, 3-(4′-((1H-pyrazol-3-yl)methoxy)-2-chloro-[1,1′-biphenyl]-3-yl)piperidine-2,6-dione]",Dmax,[1],94.6%
same,Dmax,[2],> 90%
same,DC50,[3],29.3 nM
same,DC50,[4],≤ 100 nM
"Cn1ccc(OCc2ccc(-c3cccc(C4CCC(=O)NC4=O)c3Cl)cc2)n1 (stereo not drawn) [Compound 160, 3-(2-chloro-4′-(((1-methyl-1H-pyrazol-3-yl)oxy)methyl)-[1,1′-biphenyl]-3-yl)piperidine-2,6-dione]",Dmax,[1],94.5%
same,Dmax,[2],> 90%
same,DC50,[3],18.5 nM
same,DC50,[4],≤ 100 nM
